Activity calls are given as the source filed them. How the calls were made is not given here.
System: CCRIS mutagenicity, Ames/micronucleus/aberration tests
Assay: CCRIS mutagenicity studies

SMILES: CC=O
- mutagenic call (End Point: In vitro chromosomal aberrations, Test System: Chinese hamster lung (CHL/IU) cells, Metabolic Activation: None): active; positive (structural changes)
- mutagenic call (End Point: In vitro chromosomal aberrations, Test System: Chinese hamster lung (CHL/IU) cells, Metabolic Activation: Rat, Liver, S9, Phenobarbital and 5,6-benzoflavone): active; positive (structural changes)
- mutagenic call (End Point: In vivo micronucleus, Test System: Peripheral blood reticulocytes, Species: Mouse, Strain/Sex: Aldh2+/+ aldehyde dehydrogenase-2 sufficient /male, Route: Inhalation): inactive; negative
- mutagenic call (End Point: In vivo micronucleus, Test System: Peripheral blood reticulocytes, Species: Mouse, Strain/Sex: Aldh2+/+ aldehyde dehydrogenase-2 sufficient /male, Route: Oral): inactive; negative
- mutagenic call (End Point: In vivo micronucleus, Test System: Peripheral blood reticulocytes, Species: Mouse, Strain/Sex: Aldh2-/- aldehyde dehydrogenase-2 null /male, Route: Inhalation): active; positive
- mutagenic call (End Point: In vivo micronucleus, Test System: Peripheral blood reticulocytes, Species: Mouse, Strain/Sex: Aldh2-/- aldehyde dehydrogenase-2 null /male, Route: Oral): active; positive
- mutagenic call (Test System: AMES SALMONELLA TYPHIMURIUM, Strain/Indicator: TA98, Metabolic Activation: HAMSTER, LIVER, S-9, AROCLOR 1254, Method: STANDARD PLATE): inactive; negative
- mutagenic call (Test System: AMES SALMONELLA TYPHIMURIUM, Strain/Indicator: TA98, Metabolic Activation: NONE, Method: GAS EXPOSURE): inactive; negative
- mutagenic call (Test System: AMES SALMONELLA TYPHIMURIUM, Strain/Indicator: TA98, Metabolic Activation: NONE, Method: PREINCUBATION): inactive; negative
- mutagenic call (Test System: AMES SALMONELLA TYPHIMURIUM, Strain/Indicator: TA98, Metabolic Activation: NONE, Method: STANDARD PLATE): inactive; negative
- mutagenic call (Test System: AMES SALMONELLA TYPHIMURIUM, Strain/Indicator: TA98, Metabolic Activation: RAT LIVER S-9, PHENOBARBITAL AND BETA-NAPHTHOFLAVONE, Method: PREINCUBATION): inactive; negative
- mutagenic call (Test System: AMES SALMONELLA TYPHIMURIUM, Strain/Indicator: TA98, Metabolic Activation: RAT, LIVER, S-9, AROCLOR 1254, Method: PREINCUBATION): inactive; negative
- mutagenic call (Test System: AMES SALMONELLA TYPHIMURIUM, Strain/Indicator: TA98, Metabolic Activation: RAT, LIVER, S-9, AROCLOR 1254, Method: STANDARD PLATE): inactive; negative
- mutagenic call (Test System: AMES SALMONELLA TYPHIMURIUM, Strain/Indicator: TA98, Metabolic Activation: RAT, LIVER, S-9, PHENOBARBITAL AND BETA-NAPHTHOFLAVONE, Method: GAS EXPOSURE): inactive; negative
- mutagenic call (Test System: AMES SALMONELLA TYPHIMURIUM, Strain/Indicator: TA100, Metabolic Activation: HAMSTER, LIVER, S-9, AROCLOR 1254, Method: STANDARD PLATE): inactive; negative
- mutagenic call (Test System: AMES SALMONELLA TYPHIMURIUM, Strain/Indicator: TA100, Metabolic Activation: MOUSE LIVER S-9, AROCLOR 1254, Method: VAPOR PHASE): inactive; negative
- mutagenic call (Test System: AMES SALMONELLA TYPHIMURIUM, Strain/Indicator: TA100, Metabolic Activation: NONE, Method: GAS EXPOSURE): inactive; negative
- mutagenic call (Test System: AMES SALMONELLA TYPHIMURIUM, Strain/Indicator: TA100, Metabolic Activation: NONE, Method: PREINCUBATION): inactive; negative
- mutagenic call (Test System: AMES SALMONELLA TYPHIMURIUM, Strain/Indicator: TA100, Metabolic Activation: NONE, Method: STANDARD PLATE): inactive; negative
- mutagenic call (Test System: AMES SALMONELLA TYPHIMURIUM, Strain/Indicator: TA100, Metabolic Activation: NONE, Method: VAPOR PHASE): inactive; negative
- mutagenic call (Test System: AMES SALMONELLA TYPHIMURIUM, Strain/Indicator: TA100, Metabolic Activation: RAT LIVER S-9, AROCLOR 1254, Method: VAPOR PHASE): inactive; negative
- mutagenic call (Test System: AMES SALMONELLA TYPHIMURIUM, Strain/Indicator: TA100, Metabolic Activation: RAT LIVER S-9, PHENOBARBITAL AND BETA-NAPHTHOFLAVONE, Method: PREINCUBATION): inactive; negative
- mutagenic call (Test System: AMES SALMONELLA TYPHIMURIUM, Strain/Indicator: TA100, Metabolic Activation: RAT, LIVER, S-9, AROCLOR 1254, Method: PREINCUBATION): inactive; negative
- mutagenic call (Test System: AMES SALMONELLA TYPHIMURIUM, Strain/Indicator: TA100, Metabolic Activation: RAT, LIVER, S-9, AROCLOR 1254, Method: STANDARD PLATE): inactive; negative
- mutagenic call (Test System: AMES SALMONELLA TYPHIMURIUM, Strain/Indicator: TA100, Metabolic Activation: RAT, LIVER, S-9, PHENOBARBITAL AND BETA-NAPHTHOFLAVONE, Method: GAS EXPOSURE): inactive; negative
- mutagenic call (Test System: AMES SALMONELLA TYPHIMURIUM, Strain/Indicator: TA102, Metabolic Activation: MOUSE LIVER S-9, AROCLOR 1254, Method: VAPOR PHASE): inactive; negative
- mutagenic call (Test System: AMES SALMONELLA TYPHIMURIUM, Strain/Indicator: TA102, Metabolic Activation: NONE, Method: PREINCUBATION): inactive; negative
- mutagenic call (Test System: AMES SALMONELLA TYPHIMURIUM, Strain/Indicator: TA102, Metabolic Activation: NONE, Method: VAPOR PHASE): inactive; negative
- mutagenic call (Test System: AMES SALMONELLA TYPHIMURIUM, Strain/Indicator: TA102, Metabolic Activation: RAT, LIVER, S-9, AROCLOR 1254, Method: PREINCUBATION): inactive; negative
- mutagenic call (Test System: AMES SALMONELLA TYPHIMURIUM, Strain/Indicator: TA104, Metabolic Activation: MOUSE LIVER S-9, AROCLOR 1254, Method: VAPOR PHASE): inactive; negative
- mutagenic call (Test System: AMES SALMONELLA TYPHIMURIUM, Strain/Indicator: TA104, Metabolic Activation: NONE, Method: VAPOR PHASE): inactive; negative
- mutagenic call (Test System: AMES SALMONELLA TYPHIMURIUM, Strain/Indicator: TA104, Metabolic Activation: RAT LIVER S-9, AROCLOR 1254, Method: VAPOR PHASE): inactive; negative
- mutagenic call (Test System: AMES SALMONELLA TYPHIMURIUM, Strain/Indicator: TA1535, Metabolic Activation: HAMSTER, LIVER, S-9, AROCLOR 1254, Method: STANDARD PLATE): inactive; negative
- mutagenic call (Test System: AMES SALMONELLA TYPHIMURIUM, Strain/Indicator: TA1535, Metabolic Activation: NONE, Method: GAS EXPOSURE): inactive; negative
- mutagenic call (Test System: AMES SALMONELLA TYPHIMURIUM, Strain/Indicator: TA1535, Metabolic Activation: NONE, Method: PREINCUBATION): inactive; negative
- mutagenic call (Test System: AMES SALMONELLA TYPHIMURIUM, Strain/Indicator: TA1535, Metabolic Activation: NONE, Method: STANDARD PLATE): inactive; negative
- mutagenic call (Test System: AMES SALMONELLA TYPHIMURIUM, Strain/Indicator: TA1535, Metabolic Activation: RAT LIVER S-9, PHENOBARBITAL AND BETA-NAPHTHOFLAVONE, Method: PREINCUBATION): inactive; negative
- mutagenic call (Test System: AMES SALMONELLA TYPHIMURIUM, Strain/Indicator: TA1535, Metabolic Activation: RAT, LIVER, S-9, AROCLOR 1254, Method: STANDARD PLATE): inactive; negative
- mutagenic call (Test System: AMES SALMONELLA TYPHIMURIUM, Strain/Indicator: TA1535, Metabolic Activation: RAT, LIVER, S-9, PHENOBARBITAL AND BETA-NAPHTHOFLAVONE, Method: GAS EXPOSURE): inactive; negative
- mutagenic call (Test System: AMES SALMONELLA TYPHIMURIUM, Strain/Indicator: TA1537, Metabolic Activation: HAMSTER, LIVER, S-9, AROCLOR 1254, Method: STANDARD PLATE): inactive; negative
- mutagenic call (Test System: AMES SALMONELLA TYPHIMURIUM, Strain/Indicator: TA1537, Metabolic Activation: NONE, Method: GAS EXPOSURE): inactive; negative
- mutagenic call (Test System: AMES SALMONELLA TYPHIMURIUM, Strain/Indicator: TA1537, Metabolic Activation: NONE, Method: PREINCUBATION): inactive; negative
- mutagenic call (Test System: AMES SALMONELLA TYPHIMURIUM, Strain/Indicator: TA1537, Metabolic Activation: NONE, Method: STANDARD PLATE): inactive; negative
- mutagenic call (Test System: AMES SALMONELLA TYPHIMURIUM, Strain/Indicator: TA1537, Metabolic Activation: RAT LIVER S-9, PHENOBARBITAL AND BETA-NAPHTHOFLAVONE, Method: PREINCUBATION): inactive; negative
- mutagenic call (Test System: AMES SALMONELLA TYPHIMURIUM, Strain/Indicator: TA1537, Metabolic Activation: RAT, LIVER, S-9, AROCLOR 1254, Method: STANDARD PLATE): inactive; negative
- mutagenic call (Test System: AMES SALMONELLA TYPHIMURIUM, Strain/Indicator: TA1537, Metabolic Activation: RAT, LIVER, S-9, PHENOBARBITAL AND BETA-NAPHTHOFLAVONE, Method: GAS EXPOSURE): inactive; negative
- mutagenic call (Test System: AMES SALMONELLA TYPHIMURIUM, Strain/Indicator: TA1538, Metabolic Activation: HAMSTER, LIVER, S-9, AROCLOR 1254, Method: STANDARD PLATE): inactive; negative
- mutagenic call (Test System: AMES SALMONELLA TYPHIMURIUM, Strain/Indicator: TA1538, Metabolic Activation: NONE, Method: PREINCUBATION): inactive; negative
- mutagenic call (Test System: AMES SALMONELLA TYPHIMURIUM, Strain/Indicator: TA1538, Metabolic Activation: NONE, Method: STANDARD PLATE): inactive; negative
- mutagenic call (Test System: AMES SALMONELLA TYPHIMURIUM, Strain/Indicator: TA1538, Metabolic Activation: RAT LIVER S-9, PHENOBARBITAL AND BETA-NAPHTHOFLAVONE, Method: PREINCUBATION): inactive; negative
- mutagenic call (Test System: AMES SALMONELLA TYPHIMURIUM, Strain/Indicator: TA1538, Metabolic Activation: RAT, LIVER, S-9, AROCLOR 1254, Method: STANDARD PLATE): inactive; negative
- mutagenic call (Test System: E. COLI, Strain/Indicator: WP2UVRA, Metabolic Activation: NONE, Method: GAS EXPOSURE): inactive; negative
- mutagenic call (Test System: E. COLI, Strain/Indicator: WP2UVRA, Metabolic Activation: RAT, LIVER, S-9, PHENOBARBITAL AND BETA-NAPHTHOFLAVONE, Method: GAS EXPOSURE): inactive; negative
- mutagenic call (Test System: E.COLI, Strain/Indicator: WP2UVRA, Metabolic Activation: NONE, Method: PREINCUBATION): inactive; negative
- mutagenic call (Test System: E.COLI, Strain/Indicator: WP2UVRA, Metabolic Activation: RAT LIVER S-9, PHENOBARBITAL AND BETA-NAPHTHOFLAVONE, Method: PREINCUBATION): inactive; negative
- mutagenic call (Test System: HUMAN SKIN FIBROBLASTS, Strain/Indicator: 6-THIOGUANINE, Metabolic Activation: NONE): active; positive
- mutagenic call (Test System: MOUSE LYMPHOMA, Strain/Indicator: L5178Y (TK+/TK-), Metabolic Activation: RAT, LIVER, S-9, AROCLOR 1254, Method: SUSPENSION/PLATE): active; positive. reevaluation of results: inconclusive

— PubChem BioAssay AID1259407 (Chemical Carcinogenesis Research Information System (CCRIS), 2018)
